Laboratory results published in US7118895B2, “Process for producing aglycon by using diglycosidase and flavor-improved food containing the aglycon and converting agent to be used in the process” (Amano Enzyme Inc., priority 2000, dated 2006).

Tested on: Crude diglycosidase
Assay: Examination of pH in the conversion into isoflavone aglycons by diglycosidase using soybean materials
Assay type: biochemical, Penicillium multicolor IAM7153
Parameters: Decomposition efficiency of genistin family in soymilk / Decomposition efficiency of genistin family in defatted soybean / Decomposition efficiency of daidzin family in defatted soybean: concentration or dose not given beside the values
Conditions: for Decomposition efficiency of daidzin family in roasted soy flour: 55° C.
Outline: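 Conversion of glycosides to isoflavone aglycons was followed by HPLC after crude diglycosidase (1.88 AU/mL enzyme solution) acted at 55° C for up to 6 h on four soy materials, 50 mg each, held at pH 2–11.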

[1] = pH4.8, heat treatment of enzyme: no, reaction time 0 h
[2] = pH4.8, heat treatment of enzyme: no, reaction time 1 h
[3] = pH4.8, heat treatment of enzyme: no, reaction time 3 h
[4] = pH4.8, heat treatment of enzyme: no, reaction time 6 h
[5] = pH4.8, heat treatment of enzyme: yes, reaction time 6 h
[6] = pH6.6, heat treatment of enzyme: no, reaction time 0 h
[7] = pH6.6, heat treatment of enzyme: no, reaction time 1 h
[8] = pH6.6, heat treatment of enzyme: no, reaction time 3 h
[9] = pH6.6, heat treatment of enzyme: no, reaction time 6 h
[10] = pH6.6, heat treatment of enzyme: yes, reaction time 6 h

Decomposition efficiency of daidzin family in concentrated soybean protein (pH1.6, heat treatment of enzyme: no, reaction time 0 h): not detected
Decomposition efficiency of daidzin family in concentrated soybean protein (pH1.6, heat treatment of enzyme: no, reaction time 1 h): not detected
Decomposition efficiency of daidzin family in concentrated soybean protein (pH1.6, heat treatment of enzyme: no, reaction time 3 h): not detected
Decomposition efficiency of daidzin family in concentrated soybean protein (pH1.6, heat treatment of enzyme: no, reaction time 6 h): not detected
Decomposition efficiency of daidzin family in concentrated soybean protein (pH1.6, heat treatment of enzyme: yes, reaction time 6 h): not detected
Decomposition efficiency of daidzin family in roasted soy flour (pH2, heat treatment of enzyme no, reaction time 0 h): not detected
Decomposition efficiency of daidzin family in roasted soy flour (pH2, heat treatment of enzyme no, reaction time 1 h): not detected
Decomposition efficiency of daidzin family in roasted soy flour (pH2, heat treatment of enzyme no, reaction time 3 h): not detected
Decomposition efficiency of daidzin family in roasted soy flour (pH2, heat treatment of enzyme no, reaction time 6 h): not detected
Decomposition efficiency of daidzin family in roasted soy flour (pH2, heat treatment of enzyme yes, reaction time 6 h): not detected
Decomposition efficiency of daidzin family in soymilk (pH2.3, heat treatment of enzyme: no, reaction time 0 h): 55.1%
Decomposition efficiency of daidzin family in soymilk (pH2.3, heat treatment of enzyme: no, reaction time 1 h): 54.7%
Decomposition efficiency of daidzin family in soymilk (pH2.3, heat treatment of enzyme: no, reaction time 3 h): 51.1%
Decomposition efficiency of daidzin family in soymilk (pH2.3, heat treatment of enzyme: no, reaction time 6 h): 48.5%
Decomposition efficiency of daidzin family in soymilk (pH2.3, heat treatment of enzyme: yes, reaction time 6 h): 51.0%
Decomposition efficiency of daidzin family in defatted soybean (pH2.6, heat treatment of enzyme: no, reaction time 0 h): 41.0%
Decomposition efficiency of daidzin family in defatted soybean (pH2.6, heat treatment of enzyme: no, reaction time 1 h): 41.2%
Decomposition efficiency of daidzin family in defatted soybean (pH2.6, heat treatment of enzyme: no, reaction time 3 h): 41.8%
Decomposition efficiency of daidzin family in defatted soybean (pH2.6, heat treatment of enzyme: no, reaction time 6 h): 40.2%
Decomposition efficiency of daidzin family in defatted soybean (pH2.6, heat treatment of enzyme: yes, reaction time 6 h): 38.9%
Decomposition efficiency of daidzin family in concentrated soybean protein (pH2.7, heat treatment of enzyme: no, reaction time 0 h): not detected
Decomposition efficiency of daidzin family in concentrated soybean protein (pH2.7, heat treatment of enzyme: no, reaction time 1 h): not detected
Decomposition efficiency of daidzin family in concentrated soybean protein (pH2.7, heat treatment of enzyme: no, reaction time 3 h): not detected
Decomposition efficiency of daidzin family in concentrated soybean protein (pH2.7, heat treatment of enzyme: no, reaction time 6 h): not detected
Decomposition efficiency of daidzin family in concentrated soybean protein (pH2.7, heat treatment of enzyme: yes, reaction time 6 h): not detected
Decomposition efficiency of daidzin family in roasted soy flour (pH3, heat treatment of enzyme no, reaction time 0 h): not detected
Decomposition efficiency of daidzin family in roasted soy flour (pH3, heat treatment of enzyme no, reaction time 1 h): not detected
Decomposition efficiency of daidzin family in roasted soy flour (pH3, heat treatment of enzyme no, reaction time 3 h): not detected
Decomposition efficiency of daidzin family in roasted soy flour (pH3, heat treatment of enzyme no, reaction time 6 h): not detected
Decomposition efficiency of daidzin family in roasted soy flour (pH3, heat treatment of enzyme yes, reaction time 6 h): not detected
Decomposition efficiency of daidzin family in defatted soybean (pH3.4, heat treatment of enzyme: no, reaction time 0 h): 41.0%
Decomposition efficiency of daidzin family in defatted soybean (pH3.4, heat treatment of enzyme: no, reaction time 1 h): 39.4%
Decomposition efficiency of daidzin family in defatted soybean (pH3.4, heat treatment of enzyme: no, reaction time 3 h): 34.5%
Decomposition efficiency of daidzin family in defatted soybean (pH3.4, heat treatment of enzyme: no, reaction time 6 h): 29.0%
Decomposition efficiency of daidzin family in defatted soybean (pH3.4, heat treatment of enzyme: yes, reaction time 6 h): 37.1%
Decomposition efficiency of daidzin family in soymilk (pH3.5, heat treatment of enzyme: no, reaction time 0 h): 55.1%
Decomposition efficiency of daidzin family in soymilk (pH3.5, heat treatment of enzyme: no, reaction time 1 h): 35.6%
Decomposition efficiency of daidzin family in soymilk (pH3.5, heat treatment of enzyme: no, reaction time 3 h): 15.1%
Decomposition efficiency of daidzin family in soymilk (pH3.5, heat treatment of enzyme: no, reaction time 6 h): 7.4%
Decomposition efficiency of daidzin family in soymilk (pH3.5, heat treatment of enzyme: yes, reaction time 6 h): 49.1%
Decomposition efficiency of daidzin family in concentrated soybean protein (pH3.7, heat treatment of enzyme: no, reaction time 0 h): not detected
Decomposition efficiency of daidzin family in concentrated soybean protein (pH3.7, heat treatment of enzyme: no, reaction time 1 h): not detected
Decomposition efficiency of daidzin family in concentrated soybean protein (pH3.7, heat treatment of enzyme: no, reaction time 3 h): not detected
Decomposition efficiency of daidzin family in concentrated soybean protein (pH3.7, heat treatment of enzyme: no, reaction time 6 h): not detected
Decomposition efficiency of daidzin family in concentrated soybean protein (pH3.7, heat treatment of enzyme: yes, reaction time 6 h): not detected
Decomposition efficiency of daidzin family in roasted soy flour (pH4, heat treatment of enzyme no, reaction time 0 h): not detected
Decomposition efficiency of daidzin family in roasted soy flour (pH4, heat treatment of enzyme no, reaction time 1 h): not detected
Decomposition efficiency of daidzin family in roasted soy flour (pH4, heat treatment of enzyme no, reaction time 3 h): not detected
Decomposition efficiency of daidzin family in roasted soy flour (pH4, heat treatment of enzyme no, reaction time 6 h): not detected
Decomposition efficiency of daidzin family in roasted soy flour (pH4, heat treatment of enzyme yes, reaction time 6 h): not detected
Decomposition efficiency of daidzin family in defatted soybean [1]: 40.7%
Decomposition efficiency of daidzin family in soymilk [1]: 56.2%
Decomposition efficiency of daidzin family in defatted soybean [2]: 40.5%
Decomposition efficiency of daidzin family in soymilk [2]: 47.4%
Decomposition efficiency of daidzin family in defatted soybean [3]: 36.7%
Decomposition efficiency of daidzin family in soymilk [3]: 33.9%
Decomposition efficiency of daidzin family in defatted soybean [4]: 30.5%
Decomposition efficiency of daidzin family in soymilk [4]: 20.3%
Decomposition efficiency of daidzin family in defatted soybean [5]: 38.4%
Decomposition efficiency of daidzin family in soymilk [5]: 49.7%
Decomposition efficiency of daidzin family in roasted soy flour (pH5, heat treatment of enzyme no, reaction time 0 h): not detected
Decomposition efficiency of daidzin family in roasted soy flour (pH5, heat treatment of enzyme no, reaction time 1 h): not detected
Decomposition efficiency of daidzin family in roasted soy flour (pH5, heat treatment of enzyme no, reaction time 3 h): not detected
Decomposition efficiency of daidzin family in roasted soy flour (pH5, heat treatment of enzyme no, reaction time 6 h): not detected
Decomposition efficiency of daidzin family in roasted soy flour (pH5, heat treatment of enzyme yes, reaction time 6 h): not detected
Decomposition efficiency of daidzin family in concentrated soybean protein (pH5.1, heat treatment of enzyme: no, reaction time 0 h): not detected
Decomposition efficiency of daidzin family in concentrated soybean protein (pH5.1, heat treatment of enzyme: no, reaction time 1 h): not detected
Decomposition efficiency of daidzin family in concentrated soybean protein (pH5.1, heat treatment of enzyme: no, reaction time 3 h): not detected
Decomposition efficiency of daidzin family in concentrated soybean protein (pH5.1, heat treatment of enzyme: no, reaction time 6 h): not detected
Decomposition efficiency of daidzin family in concentrated soybean protein (pH5.1, heat treatment of enzyme: yes, reaction time 6 h): not detected
Decomposition efficiency of daidzin family in defatted soybean (pH5.4, heat treatment of enzyme: no, reaction time 0 h): 40.7%
Decomposition efficiency of daidzin family in defatted soybean (pH5.4, heat treatment of enzyme: no, reaction time 1 h): 44.2%
Decomposition efficiency of daidzin family in defatted soybean (pH5.4, heat treatment of enzyme: no, reaction time 3 h): 41.5%
Decomposition efficiency of daidzin family in defatted soybean (pH5.4, heat treatment of enzyme: no, reaction time 6 h): 36.9%
Decomposition efficiency of daidzin family in defatted soybean (pH5.4, heat treatment of enzyme: yes, reaction time 6 h): 44.9%
Decomposition efficiency of daidzin family in soymilk (pH6.2, heat treatment of enzyme: no, reaction time 0 h): 56.2%
Decomposition efficiency of daidzin family in soymilk (pH6.2, heat treatment of enzyme: no, reaction time 1 h): 54.1%
Decomposition efficiency of daidzin family in soymilk (pH6.2, heat treatment of enzyme: no, reaction time 3 h): 46.4%
Decomposition efficiency of daidzin family in soymilk (pH6.2, heat treatment of enzyme: no, reaction time 6 h): 41.9%
Decomposition efficiency of daidzin family in soymilk (pH6.2, heat treatment of enzyme: yes, reaction time 6 h): 49.7%
Decomposition efficiency of daidzin family in roasted soy flour (pH6.5, heat treatment of enzyme no, reaction time 0 h): not detected
Decomposition efficiency of daidzin family in roasted soy flour (pH6.5, heat treatment of enzyme no, reaction time 1 h): not detected
Decomposition efficiency of daidzin family in roasted soy flour (pH6.5, heat treatment of enzyme no, reaction time 3 h): not detected
Decomposition efficiency of daidzin family in roasted soy flour (pH6.5, heat treatment of enzyme no, reaction time 6 h): not detected
Decomposition efficiency of daidzin family in roasted soy flour (pH6.5, heat treatment of enzyme yes, reaction time 6 h): not detected
Decomposition efficiency of daidzin family in concentrated soybean protein [6]: not detected
Decomposition efficiency of daidzin family in defatted soybean [6]: 43.1%
Decomposition efficiency of daidzin family in concentrated soybean protein [7]: not detected
Decomposition efficiency of daidzin family in defatted soybean [7]: 45.9%
Decomposition efficiency of daidzin family in concentrated soybean protein [8]: not detected
Decomposition efficiency of daidzin family in defatted soybean [8]: 44.0%
Decomposition efficiency of daidzin family in concentrated soybean protein [9]: not detected
Decomposition efficiency of daidzin family in defatted soybean [9]: 41.8%
Decomposition efficiency of daidzin family in concentrated soybean protein [10]: not detected
Decomposition efficiency of daidzin family in defatted soybean [10]: 41.2%
Decomposition efficiency of daidzin family in soymilk (pH7.2, heat treatment of enzyme: no, reaction time 0 h): 56.1%
Decomposition efficiency of daidzin family in soymilk (pH7.2, heat treatment of enzyme: no, reaction time 1 h): 56.4%
Decomposition efficiency of daidzin family in soymilk (pH7.2, heat treatment of enzyme: no, reaction time 3 h): 52.4%
Decomposition efficiency of daidzin family in soymilk (pH7.2, heat treatment of enzyme: no, reaction time 6 h): 48.2%
Decomposition efficiency of daidzin family in soymilk (pH7.2, heat treatment of enzyme: yes, reaction time 6 h): 48.3%
Decomposition efficiency of daidzin family in defatted soybean (pH7.8, heat treatment of enzyme: no, reaction time 0 h): 42.0%
Decomposition efficiency of daidzin family in defatted soybean (pH7.8, heat treatment of enzyme: no, reaction time 1 h): 43.6%
Decomposition efficiency of daidzin family in defatted soybean (pH7.8, heat treatment of enzyme: no, reaction time 3 h): 41.4%
Decomposition efficiency of daidzin family in defatted soybean (pH7.8, heat treatment of enzyme: no, reaction time 6 h): 38.7%
Decomposition efficiency of daidzin family in defatted soybean (pH7.8, heat treatment of enzyme: yes, reaction time 6 h): 36.7%
Decomposition efficiency of daidzin family in roasted soy flour (pH8.5, heat treatment of enzyme no, reaction time 0 h): not detected
Decomposition efficiency of daidzin family in roasted soy flour (pH8.5, heat treatment of enzyme no, reaction time 1 h): not detected
Decomposition efficiency of daidzin family in roasted soy flour (pH8.5, heat treatment of enzyme no, reaction time 3 h): not detected
Decomposition efficiency of daidzin family in roasted soy flour (pH8.5, heat treatment of enzyme no, reaction time 6 h): not detected
Decomposition efficiency of daidzin family in roasted soy flour (pH8.5, heat treatment of enzyme yes, reaction time 6 h): not detected
Decomposition efficiency of daidzin family in concentrated soybean protein (pH8.6, heat treatment of enzyme: no, reaction time 0 h): not detected
Decomposition efficiency of daidzin family in concentrated soybean protein (pH8.6, heat treatment of enzyme: no, reaction time 1 h): not detected
Decomposition efficiency of daidzin family in concentrated soybean protein (pH8.6, heat treatment of enzyme: no, reaction time 3 h): not detected
Decomposition efficiency of daidzin family in concentrated soybean protein (pH8.6, heat treatment of enzyme: no, reaction time 6 h): not detected
Decomposition efficiency of daidzin family in concentrated soybean protein (pH8.6, heat treatment of enzyme: yes, reaction time 6 h): not detected
Decomposition efficiency of daidzin family in soymilk (pH11.6, heat treatment of enzyme: no, reaction time 0 h): 52.5%
Decomposition efficiency of daidzin family in soymilk (pH11.6, heat treatment of enzyme: no, reaction time 1 h): 56.4%
Decomposition efficiency of daidzin family in soymilk (pH11.6, heat treatment of enzyme: no, reaction time 3 h): 50.4%
Decomposition efficiency of daidzin family in soymilk (pH11.6, heat treatment of enzyme: no, reaction time 6 h): 47.7%
Decomposition efficiency of daidzin family in soymilk (pH11.6, heat treatment of enzyme: yes, reaction time 6 h): 46.1%
Structure (SMILES): O=C(O)CC(=O)OC[C@H]1O[C@@H](Oc2ccc3c(=O)c(-c4ccc(O)cc4)coc3c2)[C@H](O)[C@@H](O)[C@@H]1O [malonyldaidzin, 6″-O-malonyldaidzin]
